# Measured values: US9937194B1, “Compounds and methods for treating inflammatory diseases” (priority 2009, dated 2018)
# Like-named read-outs stand apart in the source and are kept apart here.
# Tests used:
# HDAC activity = assay: H2O2-induced reduction of HDAC activity in PMA-differentiated U937 cells; format: cell-based, human; details: for restoration of H2O2-reduced HDAC activity (%): test concentration not given, bracketed second value not explained
# Experimental: In cell HDAC assay. Cells are incubated with Fluor de Lys™ substrate for 1 hr before lyses. Total HDAC activity from whole cell extracts is measured using the HDAC Fluorimetric Assay/Drug Discovery Kit (BIOMOL® International, Inc., Plymouth Meeting, Pa.).
# HDAC expression: In cell HDAC activity assay: U937 is differentiated to macrophage type cells by PMA for 3 days. HDAC fluorescent substrate (Biomol) is added before exposure of oxidative stress (H2O2, 200 μM) or Tobacco smoke conditioned medium for 4 hrs. HDAC activity is measured (Biomol kit). Compounds at different concentrations are treated 20 min before oxidative stress treatment.
# PMA-differentiated macrophage-like cells are pretreated with compounds described herein for 20 min. After H2O2 (200 μM) stimulation for 4 hrs, HDAC activity is assayed. Data are expressed as fold changes against positive control treated with H2O2 only. Values represent means of four experiments±SEM.
# IL-8 = assay: LPS-induced IL-8 release in PMA-differentiated U937 cells (ELISA); format: cell-based, human; details: for IL-8 inhibition (%): test concentration not given
# Experimental: (§1) Cytokine ELISA. LPS-induced IL-8, TNFα concentrations and TNFα-induced IL-8 concentrations are determined by sandwich ELISA according to the manufacturer's instructions (R&D Systems Europe). IC50 values for dexamethasone on IL-8 production are calculated using the computer program Prism 4.0 (GraphPad Software Inc., San Diego, Calif.) as a marker for steroid sensitivity.
# (§2) Effects of compounds on LPS-induced IL-8 and TNFα release in PMA-differentiated U937 cells. PMA-differentiated macrophage-like cells are pretreated with compounds described herein for 1 hr, followed by LPS (100 ng/ml) stimulation for 4 hrs. LPS-induced IL-8 and TNFα release is evaluated by ELISA. Values represent means of three experiments±SEM.
# TNFα = assay: LPS-induced TNFα release in PMA-differentiated U937 cells (ELISA); format: cell-based, human; details: for TNFα inhibition (%): test concentration not given
# Experimental: as §1, §2
# MMP9 = assay: PMA-induced MMP9 expression in U937 cells (gelatin zymography); format: cell-based, human; details: test concentration not given; bracketed second value not explained
# Experimental: Zymography. MMP9 enzyme activity is measured by gelatin zymography. 5 μl of supernatants were diluted with 5 μl Laemli sample buffer (Bio-Rad) and are loaded on a Novex® 10% Zymogram (Gelatin) gel (Invitrogen). After electrophoresis (90 min, 125 V, 35 mA, 5 W) gels are incubated with 1× Novex® zymogram renaturing buffer (Invitrogen) for 30 min at room temperature with gentle agitation. Gels are then rinsed in 1× Novex® zymogram developing buffer (Invitrogen) for 30 min at room temperature with gentle agitation prior to overnight incubation in the developing buffer at 37° C. After incubation the gels are stained using the colloidal blue staining kit (Invitrogen) with buffer containing 20% methanol and 70% distilled water to visualize the zymogen bands. Relevant band intensities are quantified by densitometric analysis using the UVP GelDoc-It system.
# Effects of compounds on PMA-induced MMP9 expression in U937 cells. U937 cells are pretreated with compounds described herein for 1 hr, followed by PMA (50 ng/ml) treatment for 48 hrs. After 48 hrs supernatants are collected for zymography. MMP9 enzyme activity is measured by gelatin zymography. Data are expressed as fold changes against positive control treated with PMA only. Values represent means of three experiments±SEM.
# [1] = format: cell-based
# Experimental: The human monocytic cell line U937 and the human type II alveolar epithelial carcinoma cell line A549 were obtained from the American Type Culture Collection (ATCC, Rockville, Md.). PBMCs from COPD patients were obtained in Brompton hospital and separated by AccuSPIN (Sigma-Aldrich, Poole, UK). Cells were cultured in complete growth medium (Sigma-Aldrich) (RPMI 1640 for U937, PBMCs, and Dulbecco's modified essential medium (DMEM) for A549) supplemented with 10% fetal bovine serum (FBS) and 1% L-glutamine at 37° C. in a humidified atmosphere with 5% CO2. U937 were differentiated into an adherent macrophage-like morphology by exposure to PMA (50 or 100 ng/ml) for 48 hrs in complete growth medium. Cell viability was assessed microscopically by trypan blue staining. Cell toxicity was determined by MTT assay as needed. This study was approved by the ethics committee of the Royal Brompton Hospitals, and all subjects gave written informed consent.
# K. pneumonia 13883 = assay: MIC; format: cell-based; details: in µg/mL
# E. coli ATCC 25922 = assay: MIC; format: cell-based; details: in µg/mL
# [2] = tested on: S. typhimurium ATCC 14028; assay: MIC; format: cell-based; details: in µg/mL
# H. influenzae ATCC 49247 = assay: MIC; format: cell-based
# S. pneumoniae ATCC 49619 = assay: MIC; format: cell-based
# S. pneumoniae 163 (MefA) = assay: MIC; format: cell-based; details: in µg/mL
# S. pneumoniae 303 (ErmB) = assay: MIC; format: cell-based
# [3] = tested on: S. aureus ATCC 29213 (MSSA) MLS-S; assay: MIC; format: cell-based
# S. aureus MRSA 33591 = assay: MIC; format: cell-based
# [4] = tested on: S. aureus 96:11480 (MLS-I); assay: MIC; format: cell-based; set-up: unit not given beside the values
# P. aeruginosa ATCC 27853 = assay: MIC; format: cell-based
# [5] = tested on: N. gonorrhoeae ATCC 49226; assay: MIC; format: cell-based; set-up: unit not given beside the values
# E. faecium ATCC 19434 = assay: MIC; format: cell-based
# Akt = assay: H2O2-induced phosphorylation of Akt in PMA-differentiated U937 cells (western blot); format: cell-based, human; details: PMA-differentiated U937; H2O2 1 mM 30 min
# Experimental: Cell Lysis and Western Blotting. Whole cell protein extracts are prepared using modified RIPA buffer (50 mM Tris HCL pH 7.4, 0.5% NP-40, 0.25% Na-deoxycholate, 150 mM NaCl with freshly added complete protease (Roche). Phosphatase inhibitor (Active Motif) is also added when required. Protein concentration is determined using the Bio-Rad Protein Assay (Bio-Rad). Proteins are separated by SDS-PAGE under denaturing conditions, and electrotransferred to a nitrocellulose membrane (Amersham Biosciences, Amersham, U.K.) (Western blotting). The membranes are blocked in TBS containing 0.05% Tween 20 and 5% non-fat dried milk, and then incubated with anti-pAkt or Akt antibody followed by an horse radish peroxidase-conjugated secondary antibody (Dako UK Ltd., Ely, UK). Bound antibodies are visualized by ECL Plus (GE Healthcare UK Ltd., Little Chalfont, UK). The band density is calculated by densitometry (UVP Bioimaging Systems, Cambridge, UK) using Labworks software (Ultra-Violet Products, Cambridge, UK).
# Effects of compounds on H2O2-induced phosphorylation of Akt in PMA-differentiated U937 cells. PMA-differentiated macrophage-like cells are pretreated with compounds described herein for 20 min. After H2O2 (1 mM) stimulation for 30 min, cells are lysed. Phosphorylation levels of Akt are measured by western blot. Data are calculated relative to total protein, and expressed as fold changes against positive control treated with H2O2 only. Values represent means of three or four experiments±SEM.
# U937 cells = assay: H2O2-induced steroid insensitivity in U937 cells (dexamethasone IC50 on TNFα-induced IL-8); format: cell-based, human; details: highest concentration tested (100 μM); H2O2 200 μM
# Experimental: as §1
# Restoration of steroid sensitivity. U937 cells: U937 are treated with oxidative stress (H2O2, 200 μM or 0.15 dilution CSM (cigarette smoke conditioned medium)) and 4 hours later, stimulated with TNFα (10 ng/ml) in the presence of dexamethasone (10^−11-10^−6M). Supernatant and cells are collected 24 hrs after stimulation and IL-8 is measured by conventional ELISA. As the index of corticosteroid sensitivity, IC50 of dexamethasone is calculated. Test compounds are treated 20 min before oxidative stress treatment.
# Effects of compounds on H2O2-induced steroid insensitivity in U937 cells. Cells stimulated with H2O2 (200 μM) overnight are incubated with compounds described herein for 30 min under H2O2 (200 μM) exposure. The cells are treated with dexamethasone (10^−11 to 10^−6 M) for 20 min, followed by the TNFα stimulation overnight. TNFα-induced IL-8 release is evaluated by ELISA and IC50 values for dexamethasone on IL-8 production are calculated using Prism. Data are expressed as fold changes against positive control treated with H2O2 only. Values represent means of four experiments±SEM. H2O2 exposure reduces dexamethasone sensitivity by approximately 4 fold based on calculated IC50 values of TNFα-induced IL-8 production.
# A/J mice exposed to LPS = assay: Anti-inflammatory activity in vivo: A/J mice exposed to LPS intranasally; details: intranasal, 1 hr before LPS challenge
compound,measurement,setting,value
CCC1OC(=O)C(C)(F)C(=O)C(C)C(OC2OC(C)CC(N(C)C)C2O)C(C)(OC)CC(C)C(=O)C(C)C2N(CCCCn3cc(Cn4nnc5ccccc54)nn3)C(=O)OC12C (stereo not drawn) [Example 22],restoration of H2O2-reduced HDAC activity (%),HDAC activity,22 (29) %
same,IL-8 inhibition (%),IL-8,76%
same,TNFα inhibition (%),TNFα,48%
same,MMP9 inhibition (%),MMP9,38 (23) %
same,Cell Toxicity (% cell death),[1]; test concentration not given,11%
same,MIC K. pneumonia 13883,K. pneumonia 13883,>64
same,MIC E. coli ATCC 25922,E. coli ATCC 25922,>64
same,MIC S. typhimurium ATCC 14028,[2],64
same,MIC H. influenzae ATCC 49247,H. influenzae ATCC 49247,2 µg/mL
same,MIC S. pneumoniae ATCC 49619,S. pneumoniae ATCC 49619,≤ 0.125 µg/mL
same,MIC S. pneumoniae 163 (MefA),S. pneumoniae 163 (MefA),64
same,MIC S. pneumoniae 303 (ErmB),S. pneumoniae 303 (ErmB),≤ 0.125 µg/mL
same,MIC S. aureus ATCC 29213 (MSSA) MLS-S,[3],≤ 0.125 µg/mL
same,MIC S. aureus MRSA 33591,S. aureus MRSA 33591,> 64 µg/mL
same,MIC S. aureus 96:11480 (MLS-I),[4],≤0.125
same,MIC P. aeruginosa ATCC 27853,P. aeruginosa ATCC 27853,> 64 µg/mL
same,MIC N. gonorrhoeae ATCC 49226,[5],0.25
same,MIC E. faecium ATCC 19434,E. faecium ATCC 19434,≤ 0.125 µg/mL
"CC[C@H]1OC(=O)[C@H](C)[C@@H](O[C@H]2C[C@@](C)(OC)[C@@H](O)[C@H](C)O2)[C@H](C)[C@@H](O[C@@H]2O[C@H](C)C[C@H](N(C)C)[C@H]2O)[C@](C)(O)C[C@@H](C)CN(C)[C@H](C)[C@@H](O)[C@]1(C)O [AZI, azithromycin, reference compound]",restoration of HDAC activity compared with Example 33,"HDAC activity; PMA-differentiated U937, H2O2 200 μM 4 hrs",only at much higher doses than Example 33
same,HDAC activity reached compared with untreated controls,"HDAC activity; PMA-differentiated U937, H2O2 200 μM, comparators at highest doses tested",only restore HDAC activity to levels comparable to untreated controls
same,restoration of H2O2-reduced HDAC activity (%),HDAC activity,34%
same,inhibition of Akt phosphorylation compared with Example 33,Akt,only at much higher concentrations than Example 33
same,inhibition of LPS-induced IL-8 release compared with Example 33,IL-8; LPS 100 ng/ml 4 hrs,did not show any inhibition at any concentration tested
same,IL-8 inhibition (%),IL-8,44%
same,inhibition of LPS-induced TNFα release compared with Example 33,TNFα; LPS 100 ng/ml 4 hrs,did not show any inhibition at any concentration tested
same,TNFα inhibition (%),TNFα,31%
same,MMP9 inhibition (%),MMP9,33 (25) %
same,restoration of dexamethasone sensitivity,U937 cells,"None of ERY, CLR, or AZI restored dexamethasone sensitivity"
same,Cell Toxicity (% cell death),[1]; human,−16%
same,anti-inflammatory action in LPS-exposed A/J mice,A/J mice exposed to LPS,have anti-inflammatory action
